Source: patent US20230391748A1, “BICYCLIC INHIBITORS OF IRAK” (priority 2022, published 2023)

Columns and labels:
[1] = target: IRAK4 (Homo sapiens (Human), UniProt Q9NWZ3); assay: IRAK4 ADP-Glo Assay; type: biochemical; settings: MBP substrate
Experimental: The ADP-Glo™ reagents were thawed at ambient temperature. The Kinase Detection Reagent was prepared by mixing kinase detection buffer with the lyophilized kinase detection substrate, and set aside.
A stock volume of 5× Reaction Kinase Buffer was made with a final concentration of 100 mM MgCl2, 200 mM Tris-HCl, and 0.5 mg/ml of BSA, in distilled H2O with a final pH7.4. A 2× working stock volume of Reaction Kinase Buffer was made containing a final concentration of 100 μM DTT.
The components of IRAK4 Enzyme were thawed on ice. Diluted IRAK4 in 1× Kinase Reaction Buffer (diluted from 2× buffer) was prepared at 5.0 ng/μl.
Then diluted 1:5 in 2× Reaction Buffer in a 96 well plate. 1.0 μl was transferred to a 384 well plate in duplicate. […] 1 μl of 1 mg/ml stock solution of MBP substrate was added NOTE: MBP can be combined with ATP mix with equal volume and then added at 2 μl/well. Final reaction volume was 5 μl.
The plate was centrifuged and the reaction mixture was incubated at room temperature for 60 minutes or at 30° C. for 30 minutes.
The reaction was terminated and the remaining ATP was depleted by adding 5 μl of ADP-Glo™ Reagent. The 384-well plate was centrifuged and then the reaction mixture was incubated for another 40 minutes at ambient temperature.
10 μl of the Kinase Detection Reagent was added. The plate was centrifuged and then the reaction mixture was incubated for another 30 minutes at ambient temperature.
The 384-well reaction plate was read using the WALLAC plate reader (Luminescence 0.1s).

[2] = test system: IL23p19 in THP-1 Cells; assay: LPS Induced IL23p19 in THP-1 Cells (with IFNγ Primed) Assay; type: cell-based; settings: Homo sapiens, THP-1, 18 h, read-out: IL23 (THP, LPS) (IC50, μM)
Experimental: LPS Induced IL23p19 in THP-1 Cells (with IFNγ Primed) Assay
On day 1, 50K/well THP-1 cells were seeded and primed with IFNγ (50 ng/mL) in 384-well plates for about 18 hours in RPMI media with 10% FBS. […] 50 μL/well 2× compound was added to 50 μL/well THP-1 cells (with IFNγ primed) in duplicate in 384 well tissue culture plates. […] Day 3, after stimulation for 18 hours at 37° C., 5% CO2, the assay plate was centrifuged and 70 μL/well supernatant was harvested. IL-23p19 protein in 70 µL/well of supernatant was measured by sandwich ELISA, and 25 μl/well Cell Titer Glo reagent was added to the remaining cells to measure compound toxicity.
Maxisorp immuno ELISA plates were pre-coated with 25 μL/well of anti-IL-23p19 capture antibody (2.5 ug/mL) in PBS overnight at room temperature. […] 25 μL/well of biotin labeled anti-IL-12(p40/p70) detection antibody (100 ng/mL) in PBS with 1% BSA was added and the plates were incubated at room temperature for 2 hours with shaking. […] The plates were read with a luminometer, and the chemiluminescence values were entered into Athena (Rigel) for curve fitting, EC50 calculation, and database storage.

[3] = test system: TNF-α in human PBMCs; assay: R848-induced TNF-α in human PBMCs Assay; type: cell-based; settings: Homo sapiens, PBMC, 4 h, read-out: TNFα (PBMC, R848) (IC50, μM)
Experimental: R848-induced TNF-α in human PBMCs Assay
100 μL/well PBMCs (200K/well) were seeded in 96-well flat-bottom tissue culture plates. […] 100 μL/well 2× compound was added to the PBMC in the tissue culture plates. […] The cells were stimulated with R848 for an additional 4 hours at 37° C., 5% CO2. The supernatant (100 μl/well) was harvested to measure TNF-α by ELISA. […] The chemiluminescence values were entered into Athena (Rigel) for curve fitting, EC50 calculation, and database storage.
(§1) TNF-α ELISA was performed according to the vendor protocol, using 96 Well Flat-Bottom, MaxiSorp Black Immuno plates and 100 μL/well of supernatant. The plates were developed using 100 μL/well of Super Signal ELISA Pico Chemiluminescent Substrate. The plates were read with a luminometer, and the chemiluminescence values were entered into Athena (Rigel) for curve fitting, EC50 calculation, and database storage.

[4] = test system: TNF-α in Human Primary Monocyte-Derived Dendritic Cells; assay: Gardiquimod-Induced TNF-α in Human Primary Monocyte-Derived Dendritic Cells; type: cell-based; settings: Dendritic cell, IFNγ-primed monocyte-derived dendritic cells, 4 μg/ml Gardiquimod, 6 hours, TNF-α ELISA, read-out: TNFα (DC, GARD) (IC50)
Experimental: Gardiquimod-Induced TNF-α in Human Primary Monocyte-Derived Dendritic Cells
After 2 hours, the media including floating cells was carefully removed and 12 ml of fresh RPMI media (10% FBS) containing GM-CSF (100 ng/ml) and IL-4 (20 ng/ml) were added to the adherent monocytes. The monocytes were allowed to differentiate for 7 days at 37° C., 5% CO2 for 7 days, supplementing with fresh GM-CSF and IL-4 after 3 days. The differentiated dendritic cells (DC) were harvested by centrifugation (1200 rpm/5 min). The DCs were primed at 37° C., 5% CO2 for 24 hours with 50 ng/ml IFN-γ (1000 U/ml) at 50K/well in 100 μl/well of fresh RPMI media (10% FBS) in a white clear bottom 96 well plate.
The primed DCs were pre-incubated with test compound for 1 hour at 37° C., 5% CO2 by adding 100 μl of RPMI media containing 2× concentrated test compound per well (0.5% final DMSO concentration).
DCs were stimulated with Gardiquimod (10 μl per well of 20× concentrated Gardiquimod solution in RPMI media to give a final concentration of 4 μg/ml) at 37° C., 5% CO2 for an additional 6 hours. The supernatant (100 μl/well) was harvested to measure TNF-α by ELISA. […] The chemiluminescence values were entered into Athena (Rigel) for curve fitting, EC50 calculation, and database storage.
as §1

IRAK4, sequence (Q9NWZ3 whole entry): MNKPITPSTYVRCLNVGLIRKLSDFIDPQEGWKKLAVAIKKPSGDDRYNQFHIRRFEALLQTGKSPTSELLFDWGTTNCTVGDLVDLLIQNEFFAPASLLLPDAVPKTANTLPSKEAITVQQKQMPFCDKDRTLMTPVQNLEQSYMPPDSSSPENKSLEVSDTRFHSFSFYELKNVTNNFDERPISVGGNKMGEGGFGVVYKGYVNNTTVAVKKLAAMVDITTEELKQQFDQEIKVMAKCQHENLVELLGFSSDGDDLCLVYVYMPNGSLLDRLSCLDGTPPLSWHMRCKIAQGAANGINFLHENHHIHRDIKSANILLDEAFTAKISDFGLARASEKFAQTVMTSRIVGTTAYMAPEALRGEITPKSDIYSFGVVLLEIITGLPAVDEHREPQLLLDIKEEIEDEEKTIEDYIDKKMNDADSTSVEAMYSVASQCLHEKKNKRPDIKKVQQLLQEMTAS

Row | Compound | IC50 [1] [nM] | IC50 [2] [µM] | IC50 [3] [µM] | IC50 [4] [nM]
1 | CC(C)Oc1cc2c(OC[C@@H]3CCC(=O)N3)ncc(C#C[C@H]3CC[C@](C)(O)CC3)c2cc1C(N)=O [Compound I-22, 4-(((1r,4S)-4-hydroxy-4-methylcyclohexyl)ethynyl)-7-isopropoxy-1-(((S)-5-oxopyrrolidin-2-yl)methoxy)isoquinoline-6-carboxamide] | 12.3 | 0.208 | 0.049 | 72.9
2 | CC(C)Oc1cc2c(OC[C@@H]3CCC(=O)N3)ncc(C#C[C@H]3CC[C@@](C)(O)CC3)c2cc1C(N)=O [Compound I-23, 4-(((1s,4R)-4-hydroxy-4-methylcyclohexyl)ethynyl)-7-isopropoxy-1-(((S)-5-oxopyrrolidin-2-yl)methoxy)isoquinoline-6-carboxamide] | 11.4 | 0.712 | 2.12 | 566
3 | CC(C)Oc1cc2c(OC[C@@H]3CCC(=O)N3)ncc(C#CC3CN(C(=O)OC(C)(C)C)C3)c2cc1C(N)=O [Compound I-24, tert-butyl (S)-3-((6-carbamoyl-7-isopropoxy-1-((5-oxopyrrolidin-2-yl)methoxy)isoquinolin-4-yl)ethynyl)azetidine-1-carboxylate] | 8.1 | 0.125 | 0.0763 | 22.4
4 | CC(C)Oc1cc2c(OC[C@@H]3CCC(=O)N3)ncc(C#CC3CNC3)c2cc1C(N)=O [Compound I-25, (S)-4-(azetidin-3-ylethynyl)-7-isopropoxy-1-((5-oxopyrrolidin-2-yl)methoxy)isoquinoline-6-carboxamide] | 3.3 | 12.7 | 2.36 | 1350
5 | CC(C)Oc1cc2c(OC[C@@H]3CCC(=O)N3)ncc(C#CC3CN(C)C3)c2cc1C(N)=O [Compound I-26, (S)-7-isopropoxy-4-((1-methylazetidin-3-yl)ethynyl)-1-((5-oxopyrrolidin-2-yl)methoxy)isoquinoline-6-carboxamide] | 2.6 | 0.726 | 0.363 | 161
6 | CC(C)Oc1cc2c(OC[C@@H]3CCC(=O)N3)ncc(C#CC3CN(C(C)C)C3)c2cc1C(N)=O [Compound I-27, (S)-7-isopropoxy-4-((1-isopropylazetidin-3-yl)ethynyl)-1-((5-oxopyrrolidin-2-yl)methoxy)isoquinoline-6-carboxamide] | 5.6 | 0.634 | 0.176 | 514
7 | COC(=O)N1CC(C#Cc2cnc(OC[C@@H]3CCC(=O)N3)c3cc(OC(C)C)c(C(N)=O)cc23)C1 [Compound I-28, methyl (S)-3-((6-carbamoyl-7-isopropoxy-1-((5-oxopyrrolidin-2-yl)methoxy)isoquinolin-4-yl)ethynyl)azetidine-1-carboxylate] | 6.3 | 0.14 | 0.0331 | 111
8 | CNC(=O)N1CC(C#Cc2cnc(OC[C@@H]3CCC(=O)N3)c3cc(OC(C)C)c(C(N)=O)cc23)C1 [Compound I-29, (S)-7-isopropoxy-4-((1-(methylcarbamoyl)azetidin-3-yl)ethynyl)-1-((5-oxopyrrolidin-2-yl)methoxy)isoquinoline-6-carboxamide] | 5.5 | 4.25 | 0.686 | 1750
9 | COC1(OC)CC(C#Cc2cnc(OC[C@@H]3CCC(=O)N3)c3cc(OC(C)C)c(C(N)=O)cc23)C1 [Compound I-30, (S)-4-((3,3-dimethoxycyclobutyl)ethynyl)-7-isopropoxy-1-((5-oxopyrrolidin-2-yl)methoxy)isoquinoline-6-carboxamide] | 6.4 | 0.142 | 0.0947 | 71
10 | CC(C)Oc1cc2c(OC[C@@H]3CCC(=O)N3)ncc(C#C[C@H]3C[C@@H](N(C)C)C3)c2cc1C(N)=O [Compound I-31, 4-((cis-3-(dimethylamino)cyclobutyl)ethynyl)-7-isopropoxy-1-(((S)-5-oxopyrrolidin-2-yl)methoxy)isoquinoline-6-carboxamide] | 3.5 | 0.136 | 0.0637 | 89.8
11 | CC(C)Oc1cc2c(OC[C@@H]3CCC(=O)N3)ncc(-c3cnn(C4CC4)c3)c2cc1C(N)=O [Compound I-32, (S)-4-(1-cyclopropyl-1H-pyrazol-4-yl)-7-isopropoxy-1-((5-oxopyrrolidin-2-yl)methoxy)isoquinoline-6-carboxamide] | 8.5 | 2.21 | 0.45 | 569
12 | CC(C)Oc1cc2c(OC[C@@H]3CCC(=O)N3)ncc(-c3cnn(C4CCC4)c3)c2cc1C(N)=O [Compound I-33, (S)-4-(1-cyclobutyl-1H-pyrazol-4-yl)-7-isopropoxy-1-((5-oxopyrrolidin-2-yl)methoxy)isoquinoline-6-carboxamide] | 7.5 | 0.2 | 0.272 | 218
13 | CC(C)Oc1cc2c(OC[C@@H]3CCC(=O)N3)ncc(-c3cnn(C4CCCC4)c3)c2cc1C(N)=O [Compound I-34, (S)-4-(1-cyclopentyl-1H-pyrazol-4-yl)-7-isopropoxy-1-((5-oxopyrrolidin-2-yl)methoxy)isoquinoline-6-carboxamide] | 7.7 | 1.3 | 0.295 | 470
14 | CC(C)Oc1cc2c(OC[C@@H]3CCC(=O)N3)ncc(-c3cnn(C4CCOCC4)c3)c2cc1C(N)=O [Compound I-35, (S)-7-isopropoxy-1-((5-oxopyrrolidin-2-yl)methoxy)-4-(1-(tetrahydro-2H-pyran-4-yl)-1H-pyrazol-4-yl)isoquinoline-6-carboxamide] | 25.7 | 7.52 | 1.3 | 1620
15 | CC(C)Oc1cc2c(OC[C@@H]3CCC(=O)N3)ncc(-c3cnn(CC4CCOCC4)c3)c2cc1C(N)=O [Compound I-36, (S)-7-isopropoxy-1-((5-oxopyrrolidin-2-yl)methoxy)-4-(1-((tetrahydro-2H-pyran-4-yl)methyl)-1H-pyrazol-4-yl)isoquinoline-6-carboxamide] | 13.5 | 0.976 | 0.377 | 398
